Assays:
mouse [1] = conditions: in vivo
Text: An acetaminophen overdose mouse model for drug-induced liver injury was employed to determine the effect of liver injury on the RNA spectrum.

mouse [2] = system: mouse
[3] = Stability of RNA in plasma after enzyme or detergent treatment, qPCR; assay type: in vitro ADME, human
Experimental: The plasma samples were treated with various conditions (indicated on the top of the figure) prior to RNA isolation. The Y-axis represents the relative concentration change compared to no treatment determined by qPCR. The data represents the average changes from 9 plasma samples. The black bars represent the changes of an endogenous miRNA, miR-16, the open bars are exogenous miRNA, miR-263 from mosquitos and the gray bars are the 16S rRNA from Pseudomonas putida.
To explore the stability of exogenous RNA in plasma, we treated the plasma with RNase A from Fermentas™ (Thermo Scientific™, Wilmington, Del.) at a concentration at 1 μg/ml, DNase I (Fermentas™, Thermo Scientific™, Wilmington, Del.) at a concentration of 1 unit/ml, protease K (Fermentas™, Thermo Scientific™, Wilmington, Del.) at a concentration of 0.05 mg/ml, 0.1% Triton™ X 100, or protease K for 20 minutes followed by additional RNase A at 1 μg/ml after heat inactivation of protease K at 70° C. for 10 minutes prior for RNA isolation.
Adding additional RNase caused less reduction compared to protease followed by RNase treatments.

[4] = system: mouse dicer deficient (DCR −/−) fibroblast cell line; assay: Transfection of synthetic exogenous RNA into fibroblasts, effect on transcriptome (microarray, pathway enrichment of down-regulated genes); assay type: cell-based; conditions: 10 nM synthetic RNA, 24 hours; for effects on the cellular transcriptome (gene expression profiles): microarray; for Affected pathways: pathways enriched among down-regulated genes
Text: We transfected several synthetic, double-stranded RNA molecules selected from observed exogenous miRNA sequences and some highly abundant exogenous sequences (bacterial rRNAs) that have potential to form pre-miRNA-like secondary structures (FIG. 7) into a mouse fibroblast cell line.
The mouse dicer deficient (DCR −/−) fibroblast cell line was generated from a conditional cre and floxed Dicer allele transgenic mouse available from Jax (located on the web at jaxmice.jax.org/strain/006001.html) kindly provided by Dr. Jacques Peschon. Part of the RNase III domain encoded in the exon 23 of dicer gene was deleted following cre excision. DCR −/− cells were maintained in Dulbecco's modified Eagle's medium with high glucose. The media was supplemented with 10% FBS, 1% non-essential amino acid, 1% GlutaMAX™. The cells were routinely incubated at 37° C. in a humidified atmosphere with 5% CO2.
Lipofectamine™ RNAiMAX was purchased from Invitrogen (Life Technologies, Carlsbad, Calif.). Custom designed exogenous RNA used in transfection was obtained from Ambion (Life Technologies, Carlsbad, Calif.). DCR −/− cells were seeded at a density of 1×10^5 cells in 6-well tissue culture plates 24 h prior to transfect with 10 nM of synthetic RNAs. Cells exposed to transfection reagents only were used as control. After 24 hours in the transfection media, the cells were harvested for RNA isolation and the transfection efficiency was validated with qPCR.
Effects of exogenous RNAs on transcriptome were assessed by using the Agilent mouse 4×44K microarray (Agilent, Santa Clara, Calif.). Total RNAs were isolated with an miRNeasy® column (Qiagen, Valencia, Calif.), and both Cy3 and Cy5-labeled cRNA samples were prepared with two color labeling kit (Agilent Technologies, Santa Clara, Calif.) and then hybridized at 65° C. for 17 h. Signal intensity was calculated from digitized images captured by a scanner from Agilent (Santa Clara, Calif.), and data analysis was performed by using GeneSpring GX software (Agilent Technologies, Santa Clara, Calif.).
The expression profiles of a number of genes in the cells were affected by some of the exogenous RNA sequences. We verified the changes in levels of some of these affected genes' mRNA by QPCR (FIG. 8).

Compound	level of albumin transcript in plasma (mouse [1])	level of apolipoprotein A2 (apoA2) transcript in plasma (mouse [1])	level of transferrin transcript in plasma (mouse [1])	number of transcripts in plasma affected (mouse [1])	time course of albumin transcript level in plasma (mouse [1])	time course of apoA2 transcript level in plasma (mouse [1])	time course of transferrin transcript level in plasma (mouse [1])	histopathology of liver tissues (mouse [2]; acetaminophen overdose)	histopathology of kidney tissues (mouse [2]; mouse, in vivo)	level of RNA in plasma after treatment ([3]; 0.1% Triton X-100 prior to RNA isolation)	level of RNA in plasma after treatment ([3]; RNase A 1 μg/ml prior to RNA isolation)	level of RNA in plasma after treatment ([3]; protease K 0.05 mg/ml prior to RNA isolation)	level of RNA in plasma after treatment ([3]; protease K for 20 minutes followed by RNase A 1 μg/ml)	effects on the cellular transcriptome (gene expression profiles) [4]	Affected pathways [4]
CC(=O)Nc1ccc(O)cc1 [acetaminophen]	significantly increased	significantly increased	significantly increased	Several hundred	spiked after 3 hours and decreased over a 24 hour period	spiked after 3 hours and decreased over a 24 hour period	increased to a lesser extent but held reasonably steady over a 24-hour period	typical zoon 3 hepatocyte death	renal tubular injury	–	–	–	–	–	–
miR-263: exogenous miRNA AAUGGCACUGGAAGAAUUCACGG, miR-263a from mosquito; synthetic form transfected, native form measured in plasma (synthetic double-stranded RNA, chemistry not given here; listed as Culex pipiens)	–	–	–	–	–	–	–	–	–	reduced significantly	reduced significantly	reduced significantly	reduced significantly	did not produce any significant effects	No enriched pathway
Bantam: synthetic RNA UGAGAUCAUUGUGAAAGCUGAUU, Bantam miRNA from house fly (synthetic double-stranded RNA, chemistry not given here; listed as Musca domestica)	–	–	–	–	–	–	–	–	–	–	–	–	–	did not produce any significant effects	No enriched pathway
